One data set relates to rat fundus. The data set is described as follows: Rat fundus contractility assay (EFS-induced contraction of muscle strips). The following applies: for EC50: increase of EFS-induced contraction, mean of preparations from at least 3 animals; for Emax/% / Emax: relative to the response to ghrelin (100 nM), defined as 100%. Here is the method: Male Sprague Dawley rats (180-250 g) were culled by cervical dislocation and the fundus was removed. Each fundus was placed on a Krebs Henseleit (KH) buffer soaked dissection dish and cut along the long curvature to form a flattened sheet that was pinned in each corner. Four adjacent longitudinal strips (10×3 mm) were cut and the mucosa removed by sharp dissection. Each muscle strip was mounted in a 10 ml organ bath containing oxygenated KH at 37° C. Each strip was connected to an isometric force transducer, calibrated initially using a 5 g weight. The signal (g tension) was amplified and responses recorded by a Powerlab data capture system, connected to a computer running Labchart software (version 5.0). Tissues were placed under 1 g tension for an equilibration period of 30 min or until the baseline tension had stabilised. Carbachol (CCh, 100 nM) was then administered to establish the maximum contractile response of each preparation. Tissues were washed thoroughly and left for 30 min to re-equilibrate. Next, the muscle strips underwent electrical field stimulation (EFS). Maximal EFS pulse trains of 12V, 5 Hz, 0.1 msec pulse width, for 2 sec every 60 sec were applied until consistent electrically-stimulated phasic contractions were recorded. The voltage was then reduced in 1V increments until a consistent submaximal (EC50-75) EFS response was observed. Ghrelin (100 nM) was administered and left until a maximum response was obtained. Tissues were then washed thoroughly and left for 30 min. Once the EFS-induced contraction had re-stabilised, cumulative additions (10 nM-10 μM) of each test compound were administered. Individual responses were calculated by determining the peak of the EFS-induced contraction minus the baseline. […] The mean EC50 value for compounds was generated from data obtained on stomach preparations from at least 3 different animals.

In data set [1] the target is T1, human recombinant ghrelin receptor (GHS-R1a) (Homo sapiens, UniProt Q92847).
T1 construct: host or cells: CHO-K1
T1 sequence (Q92847 whole entry): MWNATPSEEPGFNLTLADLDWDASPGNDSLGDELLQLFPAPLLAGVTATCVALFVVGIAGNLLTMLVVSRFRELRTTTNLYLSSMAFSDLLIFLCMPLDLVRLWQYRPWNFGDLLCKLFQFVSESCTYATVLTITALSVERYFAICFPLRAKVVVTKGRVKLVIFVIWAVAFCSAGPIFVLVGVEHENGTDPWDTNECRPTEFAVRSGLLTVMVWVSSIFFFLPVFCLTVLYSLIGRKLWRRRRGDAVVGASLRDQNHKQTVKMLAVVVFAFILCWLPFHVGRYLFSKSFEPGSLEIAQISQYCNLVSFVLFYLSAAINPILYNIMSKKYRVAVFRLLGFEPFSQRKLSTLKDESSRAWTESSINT
The data set is described as follows: Calcium assay, CHO-K1 cells expressing hGHS-R1a (Fluo-4). Format: cell-based. The note with it: for Emax: CHO-K1, relative to the Emax induced by MK-0677 (defined as 100%), read-out: hGHS-R1a Ca assay Emax/%. The method, then:
(§1) Chinese hamster ovary (CHO-K1) cells expressing human recombinant ghrelin receptor (GHS-R1a) were purchased from Euroscreen (ES-410-C) and propagated in UltraCHO medium containing glutamine and supplemented with 1% heat inactivated foetal calf serum (FCS), 100 U/ml penicillin, 100 mg/l streptomycin and 0.8 g/l geneticin. Cells were sub-cultured twice a week with a 1:10 dilution. For passaging, cells were washed with 1× DPBS without calcium and magnesium, trypsinised for 10 min with 0.05% Trypsin/EDTA and resuspended in cell culture medium.
Cells were diluted to achieve 1×10^6 cells/ml, seeded in 384-well black clear bottom CellBind plates at 25000 cells/well (25u1) and incubated overnight at 37° C./5% CO2 Cells were expected to be 85-90% confluent on the day of assay (checked under the microscope) to ensure a high quality assay. Media was manually removed and 40 μl of loading solution containing probenecid and Fluo-4 no wash dye (a calcium indicator, Invitrogen F36206) were added to each well. After 30 min at 37° C. followed by another 30 min at RT, cpds were added to the wells. To generate a dose response up to 30 μM, 10 mM compound stocks in 100% (v/v) DMSO were firstly diluted in 50% (v/v) DMSO. Then, serial dilutions aimed at a full logarithmic dose responses (8 point) were performed in assay buffer [1×HBSS, 20 mM Hepes, 0.1% (w/v) BSA] to give 2.5% (v/v) DMSO and 5× final compound concentrations. The final assay DMSO concentration was 0.5% (v/v). After loading the cells with Fluo-4 containing solution, plates were read on a CeIlLux instrument (Perkin Elmer). A protocol set up to add 10 μl of 5× compound and to read the plate for 60sec after adding the compound at 17th sec was used. Fluorescence excitation took place at 494 nm and emission at 516 nm. EC50 values of agonists were calculated by fitting the percent stimulation over background [(Max-Min)/Min] using the nonlinear logistic function of the Prism 5 software (GraphPad, USA).

The target in data set [2] is T1, human recombinant ghrelin receptor (GHS-R1a). The data set is described as follows: cAMP assay (HTRF), CHO-hGHS-R1a cells. The following applies: relative to the ghrelin response (defined as 100%). The data set is classed as cell-based. Here is the method: as §1
The Homogeneous Time-Resolved Fluorescence (HTRF) cAMP dynamic 2 kit (Cisbio International, France) was used as follows. CHO-hGHS—R1a or CHO-rGHS—R1a cells were seeded in a volume of 25 μl culture media at 10,000 cells/well (400,000 cells/ml) in Greiner white 384-well high volume plates and incubated overnight (18-24 h) at 37° C./5% CO2. Then, media was removed and 6 μl assay buffer [HBSS, 10 mM Hepes, 0.2% (w/v) BSA, 1.7 mM IBMX, (pH7.4)] were added to the wells. To generate a dose response up to 30 μM, 10 mM compound stocks in 100% (v/v) DMSO were firstly diluted in 50% (v/v) DMSO followed by a further dilution into assay buffer. Then, 4 μl of 2.5× compound (dose response as 9 point log serial dilution in assay buffer from 30 μM as maximum concentration) were added to each well achieving a final DMSO assay concentration of 0.8% (v/v). 0.1 μM forskolin was added as positive control. After 30 min (rGHS—R1a cell line) or 60 min (hGHS—R1a cell line) incubation at 37° C./5% CO2, 5 μl of cAMP-d2 and 5 μl of anti-cAMP antibody-cryptate, (both made in lysis buffer), were added to the plate followed by 1 h incubation at RT. During this time, cAMP produced by the cells competed with cAMP-d2 for the anti-cAMP antibody-cryptate molecule. Then, the plate was read on the Pherastar instrument (BMG, Germany) at two different emission wavelengths ([…]). Increasing levels of endogenous cAMP produced by cells could be followed by a decrease of FRET fluorescent signal and viceversa. Values represented by a change in arbitrary fluorescence ratios (665/620) were converted into cAMP concentrations by using a standard curve, the reagents for which were supplied with the kit. EC50 values of agonists were calculated using the nonlinear logistic function of the Prism 5 software (GraphPad, USA). Emax were expressed as relative values of the ghrelin response, which was defined as 100%.

Data set [3] is described as follows: Aqueous solubility of crystalline L-malate salt forms versus free base. The data set is classed as physicochemical. The note with it: compared to the free base amorphous form.

From US20130296358A1, “3-SPIROCYCLIC PIPERIDINE DERIVATIVES AS GHRELIN RECEPTOR AGONISTS” (priority 2012, published 2013) come the findings set out here.

As a reminder, the EC50 is the concentration at which the effect is half-maximal. A low value points to a more potent agent. Consider `CN1CC(c2ccccc2)C2(CCCN(C(=O)[C@@H](COCc3ccccc3)NC(=O)C(C)(C)N)C2)C1=O` (single isomer, unassigned) [Example 1.20], for which, in the data set with rat fundus, a half-maximal effect (EC50) was put at 393 nM and the Emax/% came out at 39%. For the same molecule, in data set [1], the Emax is 99%. The “hGHS-R1a cAMP assay Emax/%” value in data set [2] is given as 169%.
As to `CN1CC(c2ccccc2)C2(CCCN(C(=O)[C@@H](COCc3ccccc3)NC(=O)C(C)(C)N)C2)C1=O` (single isomer, unassigned) [Example 1.21], in the data set with rat fundus, the EC50 is 84 nM and the Emax/% is 81%. In data set [1] (relative to the Emax induced by MK-0677 (defined as 100%)), the “hGHS-R1a Ca assay Emax/%” value is 105%. Also, the “hGHS-R1a cAMP assay Emax/%” value in data set [2] is 122%.
As for `Cc1ccc(COC[C@@H](NC(=O)C(C)(C)N)C(=O)N2CCCC3(C2)C(=O)N(C)CC3c2ccc(F)cc2)cc1` (single isomer, unassigned) [Example 1.29], a half-maximal response with rat fundus (Rattus norvegicus) (EC50) required 48 nM. The Emax in the data set with rat fundus (Rattus norvegicus) was 100%; in data set [1], 102%; in data set [2], 243%.
Take `CN1CC(c2ccccc2)C2(CCCN(C(=O)[C@@H](CCCc3ccccc3)NC(=O)C(C)(C)N)C2)C1=O` (single isomer, unassigned) [Example 1.32]: in the data set on rat fundus, a half-maximal response (EC50) required 19 nM and the Emax/% is 109%. Moreover, the Emax in data set [1] was 103%. Further, in data set [2], the Emax was determined as 176%.
In the data set with rat fundus (Rattus norvegicus), `C[C@H](OCc1ccccc1)[C@@H](NC(=O)C(C)(C)N)C(=O)N1CCCC2(C1)C(=O)N(C)CC2c1ccccc1` (single isomer, unassigned) [Example 1.34] came in with an EC50 of 68 nM. In addition, the Emax in the data set with rat fundus (Rattus norvegicus) stood at 115%; in data set [1], 107%; in data set [2] it was 168%.
For `CC(C)(C)CN1CC(c2ccccc2)C2(CCCN(C(=O)[C@@H](COCc3ccccc3)NC(=O)C(C)(C)N)C2)C1=O` (single isomer, unassigned) [Example 1.40] the same measures were 59 nM, 117%, 86% and 164%.
Turning to `CN1C(=O)C2(CCCN(C(=O)[C@@H](COCc3ccccc3)NC(=O)C(C)(C)N)C2)C1c1ccccc1` (single isomer, unassigned) [Example 2.0(ii)], the Emax in the data set with rat fundus (Rattus norvegicus) amounted to 63%; in data set [1], 99%; in data set [2], 193%. Besides, the EC50 in the data set with rat fundus is 17 nM.
As to `CN1C[C@@H](c2ccccc2)[C@@]2(CCCN(C(=O)[C@@H](COCc3ccccc3)NC(=O)C(C)(C)N)C2)C1=O.O=C(O)C[C@H](O)C(=O)O` [2-Amino-N—[(R)-1-benzyloxymethyl-2-((4S,5R)-2-methyl-1-oxo-4-phenyl-2,7-diaza-spiro[4.5]dec-7-yl)-2-oxo-ethyl]-2-methyl-propionamide L-malate salt], the aqueous solubility entry in data set [3] is on record as “increased aqueous solubility”.
On the same count and under the same terms, as for `Cc1ccc(C2CN(C)C(=O)C23CCCN(C(=O)[C@@H](COCc2ccccc2)NC(=O)C(C)(C)N)C3)cc1.O=C(O)C[C@H](O)C(=O)O` (stereo partly drawn) [2-amino-N-((2R)-3-(benzyloxy)-1-(2-methyl-1-oxo-4-p-tolyl-2,7-diazaspiro[4.5]decan-7-yl)-1-oxopropan-2-yl)-2-methylpropanamide L-malate salt], the entry is “increased aqueous solubility”.
Turning to `CN1C[C@@H](c2ccc(F)cc2)[C@@]2(CCCN(C(=O)[C@@H](COCc3ccccc3)NC(=O)C(C)(C)N)C2)C1=O.O=C(O)C[C@H](O)C(=O)O` [2-amino-N-((2R)-3-(benzyloxy)-1-((4S,5R)-4-(4-fluorophenyl)-2-methyl-1-oxo-2,7-diazaspiro[4.5]decan-7-yl)-1-oxopropan-2-yl)-2-methylpropanamide L-malate salt], the aqueous solubility result in data set [3] is given as “increased aqueous solubility”.
Regarding `CN1C[C@@H](c2ccc(F)cc2)[C@@]2(CCCN(C(=O)[C@@H](COCc3ccccc3)NC(=O)C(C)(C)N)C2)C1=O` [Example 1.2, 2-Amino-N-((2R)-3-(benzyloxy)-1-((4S,5R)-4-(4-fluorophenyl)-2-methyl-1-oxo-2,7-diazaspiro[4.5]decan-7-yl)-1-oxopropan-2-yl)-2-methylpropanamide], the half-maximal effective concentration (EC50) with rat fundus (Rattus norvegicus) was 7.5 nM. Moreover, the results for the Emax (in the data set on rat fundus (Rattus norvegicus); in data set [1]; in data set [2]) were 100%, 89% and 197%, respectively.
